Settings: Liquid; for mass density: Vibrating tube method; for speed of sound: Light diffraction method

CCCCCCCCC(=O)OCC [ethyl nonanoate]
Settings	mass density [kg/m3]	speed of sound [m/s]
293.15 K, 100 kPa	865.02	–
295.24 K, 10000 kPa	–	1348.5
295.29 K, 7000 kPa	–	1342.4
295.35 K, 5000 kPa	–	1336.6
295.41 K, 3000 kPa	–	1327.1
295.53 K, 1000 kPa	–	1318.3
295.67 K, 100 kPa	–	1303.3
298.15 K, 100 kPa	860.89	–
303.15 K, 100 kPa	856.75	–
303.18 K, 10000 kPa	–	1318
303.22 K, 3000 kPa	–	1296.2
303.26 K, 1000 kPa	–	1278.4
303.3 K, 7000 kPa	–	1307
303.41 K, 5000 kPa	–	1298
303.48 K, 100 kPa	–	1273.9
313.08 K, 10000 kPa	–	1283.3
313.14 K, 1000 kPa	–	1242.7
313.15 K, 100 kPa	848.43	–
313.45 K, 7000 kPa	–	1266
313.56 K, 3000 kPa	–	1252.4
313.77 K, 100 kPa	–	1224.9
314.03 K, 5000 kPa	–	1262.6
322.95 K, 7000 kPa	–	1231.4
323.15 K, 100 kPa	840.09	–
323.39 K, 10000 kPa	–	1246.8
323.64 K, 5000 kPa	–	1215.5
323.68 K, 100 kPa	–	1183.3
324.78 K, 3000 kPa	–	1204.3
324.85 K, 1000 kPa	–	1195.5
332.89 K, 10000 kPa	–	1208.8
332.93 K, 3000 kPa	–	1175.1
333.15 K, 100 kPa	831.73	–
333.21 K, 1000 kPa	–	1163.1
334.21 K, 5000 kPa	–	1185
334.21 K, 7000 kPa	–	1191.7
334.94 K, 100 kPa	–	1142.9
342.88 K, 3000 kPa	–	1137.2
343.1 K, 10000 kPa	–	1170.1
343.12 K, 5000 kPa	–	1153.6
343.15 K, 100 kPa	823.33	–
343.24 K, 1000 kPa	–	1123.8
343.31 K, 7000 kPa	–	1157.3
343.51 K, 100 kPa	–	1107.8
351.94 K, 3000 kPa	–	1098.9
352.22 K, 1000 kPa	–	1085.5
352.39 K, 10000 kPa	–	1135
353.15 K, 100 kPa	814.88	–
353.27 K, 5000 kPa	–	1106.1
353.32 K, 7000 kPa	–	1114.4
354.18 K, 100 kPa	–	1065.4
361.97 K, 5000 kPa	–	1078.7
362.59 K, 7000 kPa	–	1085.6
362.97 K, 3000 kPa	–	1063.9
363 K, 10000 kPa	–	1106.9
363.3 K, 1000 kPa	–	1046
364.18 K, 100 kPa	–	1028.8
371.77 K, 5000 kPa	–	1046.8
371.91 K, 1000 kPa	–	1012.3
371.99 K, 100 kPa	–	1003
372.73 K, 3000 kPa	–	1024.3
373.24 K, 10000 kPa	–	1068.4
373.26 K, 7000 kPa	–	1045.8
381.51 K, 5000 kPa	–	1011.2
381.89 K, 100 kPa	–	965.2
381.96 K, 3000 kPa	–	995.2
383.17 K, 10000 kPa	–	1037.3
383.69 K, 7000 kPa	–	1011.5
384.3 K, 1000 kPa	–	971.3
391.7 K, 5000 kPa	–	974.2
391.74 K, 7000 kPa	–	985.8
391.74 K, 10000 kPa	–	1009.8
391.75 K, 1000 kPa	–	939.5
391.81 K, 3000 kPa	–	961.1
391.89 K, 100 kPa	–	932.1
403.31 K, 1000 kPa	–	902.3
403.36 K, 7000 kPa	–	943.9
403.46 K, 3000 kPa	–	921.8
403.47 K, 10000 kPa	–	968.6
403.82 K, 5000 kPa	–	929.8
405.01 K, 100 kPa	–	884
412.73 K, 3000 kPa	–	893.7
412.73 K, 10000 kPa	–	936.6
412.81 K, 7000 kPa	–	917.8
412.98 K, 1000 kPa	–	870.1
413.05 K, 5000 kPa	–	904.2
413.84 K, 100 kPa	–	861.2
421.5 K, 5000 kPa	–	875.4
421.83 K, 1000 kPa	–	842.1
421.98 K, 10000 kPa	–	916
422 K, 7000 kPa	–	891
422.02 K, 3000 kPa	–	862.5
422.07 K, 100 kPa	–	827.6
431.53 K, 1000 kPa	–	808.9
431.84 K, 5000 kPa	–	850.9
431.86 K, 10000 kPa	–	888.7
431.88 K, 7000 kPa	–	861.7
432.05 K, 3000 kPa	–	827.6
432.93 K, 100 kPa	–	797.1
442.94 K, 1000 kPa	–	779.7
443 K, 7000 kPa	–	835.6
443.02 K, 10000 kPa	–	860.3
443.11 K, 3000 kPa	–	796.4
443.15 K, 5000 kPa	–	814.1
443.7 K, 100 kPa	–	767.3
452.5 K, 1000 kPa	–	750.6
452.64 K, 7000 kPa	–	805
452.65 K, 5000 kPa	–	786.9
452.68 K, 10000 kPa	–	835.1
452.83 K, 100 kPa	–	739.6
452.88 K, 3000 kPa	–	771.1
462.31 K, 3000 kPa	–	743.5
462.34 K, 7000 kPa	–	783.1
462.43 K, 10000 kPa	–	804.8
462.49 K, 5000 kPa	–	763
462.68 K, 1000 kPa	–	720.1
464.19 K, 100 kPa	–	703.5
471.8 K, 3000 kPa	–	718.5
471.86 K, 5000 kPa	–	737.7
471.86 K, 7000 kPa	–	756.6
471.87 K, 1000 kPa	–	693.4
471.88 K, 100 kPa	–	683
471.95 K, 10000 kPa	–	783.4
482.55 K, 1000 kPa	–	665.4
482.56 K, 3000 kPa	–	691.9
482.58 K, 7000 kPa	–	727.2
482.62 K, 5000 kPa	–	709.2
482.62 K, 10000 kPa	–	759.9
482.75 K, 100 kPa	–	652.6
492.48 K, 10000 kPa	–	735.7
492.57 K, 3000 kPa	–	660.7
492.66 K, 7000 kPa	–	704.9
492.67 K, 5000 kPa	–	681.7
493 K, 1000 kPa	–	637.4
502.65 K, 3000 kPa	–	635.1
502.91 K, 7000 kPa	–	681.8
502.95 K, 1000 kPa	–	607.9
503.08 K, 10000 kPa	–	709.9
503.42 K, 5000 kPa	–	655.5
512.78 K, 7000 kPa	–	655
512.8 K, 10000 kPa	–	689.4
512.83 K, 3000 kPa	–	609.6
512.9 K, 5000 kPa	–	633.5
513.2 K, 1000 kPa	–	581.3
522.13 K, 1000 kPa	–	555.5
522.19 K, 7000 kPa	–	631.9
522.31 K, 3000 kPa	–	583.9
522.36 K, 5000 kPa	–	609.3
522.38 K, 10000 kPa	–	662
533.35 K, 1000 kPa	–	519.4
533.43 K, 7000 kPa	–	605.6
533.52 K, 10000 kPa	–	637
533.6 K, 3000 kPa	–	552.1
533.69 K, 5000 kPa	–	581.4
542.72 K, 3000 kPa	–	528.8
542.76 K, 10000 kPa	–	619.6
542.79 K, 7000 kPa	–	583
542.91 K, 5000 kPa	–	553.5
543.62 K, 1000 kPa	–	491
552.52 K, 3000 kPa	–	500.5
552.61 K, 7000 kPa	–	558.1
552.71 K, 1000 kPa	–	458.7
552.72 K, 5000 kPa	–	527.6
552.76 K, 10000 kPa	–	596.5
562.08 K, 1000 kPa	–	428.6
562.32 K, 5000 kPa	–	499.9
562.4 K, 7000 kPa	–	532
562.45 K, 10000 kPa	–	574.7
562.48 K, 3000 kPa	–	468.4
571.78 K, 3000 kPa	–	435.9
571.96 K, 1000 kPa	–	387.2
572.13 K, 7000 kPa	–	504.6
572.32 K, 10000 kPa	–	549
572.37 K, 5000 kPa	–	472
582.01 K, 5000 kPa	–	439.9
582.26 K, 7000 kPa	–	473.6
582.35 K, 10000 kPa	–	525.5
582.39 K, 3000 kPa	–	393.3
591.81 K, 3000 kPa	–	351.2
592.38 K, 5000 kPa	–	398.5
592.79 K, 7000 kPa	–	438.3
593.15 K, 10000 kPa	–	495.3
